Values of other authors, collected in paper PMC11237654, “Optimization of quenched fluorescent peptide substrates of SARS-CoV-2 3CL^pro main protease (Mpro) from proteomic identification of P6—P6' active site specificity” (Journal of Virology, 2024).
Square brackets hold non-standard residues; d marks the D form. * marks the point of attachment. ACC = NC(=O)Cc1cc(=O)oc2cc(N*)ccc12; Tle = CC(C)(C)[C@H](N)C(=O)O; Abu = CC[C@H](N)C(=O)O

Target: SARS-CoV-2 3CL^pro (Severe acute respiratory syndrome coronavirus 2, UniProt P0DTD1, Q3569A)
Conditions: cited from earlier work

Ac-[Abu][Tle]LQ-{ACC}
kcat/KM: 859 M⁻¹ s⁻¹
